Results taken from patent US20140128733A1, “SYSTEMS AND METHODS FOR HEMODYNAMIC DETECTION OF CIRCULATORY ANOMALIES” (Cardiox Corporation, priority 2008, published 2014).
Where a name gives a salt, the structure may show the parent alone.

Assays:
[1] = Excitation and fluorescence emission wavelengths of the dyes (FIG. 2); assay type: physicochemical
Excerpt: Looking to FIG. 2 in this regard, the excitation signal for fluorescein dye is represented at curve 30 which is an excitation signal at less than about 500 nanometers (nm). A resultant fluorescence emission from the excitation at 30 is shown at curve 32, at a wavelength of about 525 nm.
(§1) Looking to the ICG dye spectrum, an excitation curve is shown at 34, having a peak excitation wavelength at about 785 nanometers. Correspondingly, the fluorescence emission from excitation at curve 34 is represented at curve 36 with a peak emission wavelength of about 830 nanometers. Directed across FIG. 2 is a curve 38 representing the level of constant signal attenuation or absorption of about 37% resulting from passage of signal through tissue. Note that if a blood vessel is about one millimeter beneath the surface of skin, the system would perform at about 37% of the original intensity of the excitation signal and fluorescence signal for the case of ICG dye indicator. In contrast, a 37% decrease in excitation and emission signal level would result for the fluorescein dye indicator at a tissue thickness of only 0.25 mm. Since the blood vessels being targeted are at least 1 mm below the skin surface, the attenuation and associated signal loss would be much larger. Therefore, ICG dye is the preferred indicator.
When an ICG indicator within the bloodstream reaches the site of irradiation with 785 nm (laser) light, the fluorescent moiety within the ICG indicator is excited as described in connection with FIG. 2 to an elevated energy state for a brief period. As the excited moiety returns to its normal energy state, it emits light at a longer wavelength (viz., 830 nm) and the difference between the excitation wavelength (viz., 785 nm) and the fluorescence emission wavelength (viz., 830 nm) is known as the Stokes Shift. This Stokes Shift of nominally 45 nm allows the fluoresce emission to be extracted by using a interferential or other type of optical filter to reflect or otherwise attenuate all but the wavelength band of interest (viz., 820 to 840 nm).

[2] = Excitation and fluorescence signal attenuation through tissue versus depth of artery (FIG. 2); assay type: physicochemical; settings: FIG. 2 curve 38
Excerpt: as §1
Turning again to the ICG dye spectrum, note that the excitation signal 34 for ICG intersects curve 38 at a depth allowing for readily reaching blood vessels, for example within the pinna (e.g., scaphoid fossa) of the ear. Accordingly, ICG dye is usable as a circulatory tracking agent when detecting through skin, and ICG dye was the indicator elected for subsequent study.

excitation wavelength ([1]; FIG. 2): about 785 nm | fluorescence emission wavelength ([1]; FIG. 2): about 830 nm | Stokes Shift ([1]; difference between excitation and fluorescence emission wavelength): ~45 nm | tissue depth at constant signal attenuation of about 37% [2]: about one
Structure (SMILES): CC1(C)C(/C=C/C=C/C=C/C=C2\N(CCCCS(=O)(=O)O)c3ccc4ccccc4c3C2(C)C)=[N+](CCCCS(=O)(=O)[O-])c2ccc3ccccc3c21 [ICG, 2-[7-[1,1-dimethyl-3-(4-sulfobutyl)benz[e]indolin-2-ylidene]-1,3,5-heptatrienyl]-1,1-dimethyl-3-(4-sulfobutyl)-1H-benz[e]indolium hydroxide, inner salt, sodium salt]
